The results in this text go back to ChEMBL document CHEMBL1123951, “Triazolines. 14. 1,2,3-Triazolines and triazoles, a new class of anticonvulsants. Drug design and structure-activity relationships” (J Med Chem, 1988).

For data set [1], the species on record is Mus musculus. The data set is described as follows: Anticonvulsant activity in mice, measured by maximal electroshock seizure (MES) test. The data set is classed as functional. A general note: In the maximal electroshock model the usual endpoint is tonic extension of the hind limbs.
Data set [2] has as its system Mus musculus. Put plainly: Anticonvulsant activity in mice, measured by subcutaneous pentylenetetrazole seizure (scMet) test. The data set is classed as functional. Conditions: sc.
For data set [3], the species on record is Mus musculus. Put plainly: Neurological deficit in mouse measured by rotarod test. The class given is functional. Background: In the rotarod test animals must keep their balance on a rotating rod.
Data set [4] in a line: Protective index (PI), anticonvulsant activity, ratio of TD50/ED50 value in maximal electroconvulsive shock seizure (MES) test. The class given is ADME, organism-based. The conditions noted are these: mouse, in vivo.
Data set [5] can be described thus: Protective index (PI),anticonvulsant activity, ratio of TD50/ED50 value in scMet test. The data set is classed as ADME, organism-based. Conditions: mouse, in vivo.
Data set [6] is described as follows: Protective index (Pi) was measured as the ratio of TD50/ED50 value in MES test. The class given is ADME.

As for `Brc1ccc(-n2nncc2-c2cccnc2)cc1`, the values for the ED50 in the data set filed under Mus musculus [1] and in the data set on Mus musculus [2] were 87.2 mg/kg and 40.6 mg/kg, respectively. Also, the TD50 in the data set listed under Mus musculus [3] is 496 mg/kg. For the same compound, the selectivity ratio came to 5.7 in data set [4] and 12.2 in data set [5].

Regarding `Fc1ccc(-n2nncc2-c2ccccn2)cc1F`, the ED50 in the data set listed under Mus musculus [1] came out at 62.5 mg/kg; in the data set with Mus musculus [2] it was 123 mg/kg. This compound also had a TD50 in the data set filed under Mus musculus [3] of 123 mg/kg. The selectivity ratio was determined as 3.1 in data set [4] and 1.6 in data set [5].

On to `Clc1ccc(-n2nncc2-c2cccnc2)cc1`, for which the ED50 in the data set listed under Mus musculus [1] was found to be 65.8 mg/kg; in the data set on Mus musculus [2] it was 26.9 mg/kg. Besides, in the data set filed under Mus musculus [3], the TD50 worked out at 245 mg/kg. Further, the selectivity ratio in data set [4] was 3.7; in data set [5], 9.1.

Consider `FC(F)(F)c1cccc(N2N=NCC2c2ccncc2)c1` (configuration not stated), for which the ED50 in the data set filed under Mus musculus [1] worked out at 52.1 mg/kg; with Mus musculus [2], 51 mg/kg. In the data set listed under Mus musculus [3], the TD50 is 137 mg/kg. Moreover, the selectivity ratio in data set [4] is 2.63; in data set [5], 2.69.

For the compound `c1ccc(-n2nncc2-c2ccccn2)cc1`, the 50% effective dose (ED50) is 41.1 mg/kg in the data set listed under Mus musculus [1] and 25.6 mg/kg with Mus musculus [2]. For the same compound, the TD50 in the data set filed under Mus musculus [3] was 87.9 mg/kg. For the same compound, the selectivity ratio is 2.1 in data set [4] and 3.4 in data set [5].

For `c1ccc(-n2nncc2-c2ccncc2)cc1`, the ED50 came to 78.8 mg/kg in the data set filed under Mus musculus [1] and 73.7 mg/kg with Mus musculus [2]. Besides, the TD50 in the data set filed under Mus musculus [3] came to 157 mg/kg. For the same compound, the figures for the selectivity ratio in data set [4] and in data set [5] were 2 and 2.1, respectively.

With `Brc1ccc(-n2nncc2-c2ccccn2)cc1`, the ED50 in the data set listed under Mus musculus [1] was 68 mg/kg; with Mus musculus [2] it was 88.6 mg/kg. Moreover, the TD50 in the data set listed under Mus musculus [3] was 265 mg/kg. Also, the selectivity ratio in data set [4] is 3.9; in data set [5], 3.

For the compound `FC(F)(F)c1ccc(N2N=NCC2c2ccncc2)cc1` (configuration not stated), the ED50 in the data set filed under Mus musculus [1] is 689 mg/kg; with Mus musculus [2], 421 mg/kg. The TD50 in the data set filed under Mus musculus [3] was more than 2000 mg/kg. Further, the selectivity ratio in data set [4] is more than 2.9; in data set [5] it was more than 4.8.

Consider `FC(F)(F)c1ccc(-n2nncc2-c2cccnc2)cc1`, for which the ED50 in the data set filed under Mus musculus [1] was 92.3 mg/kg; in the data set with Mus musculus [2], 90.5 mg/kg. The TD50 in the data set listed under Mus musculus [3] came out at 379 mg/kg. For the same compound, the figures for the selectivity ratio in data set [4] and in data set [5] were 4.1 and 4.2, respectively.

On to `Fc1ccc(-n2nncc2-c2cccnc2)cc1`, for which the ED50 came out at 74.6 mg/kg in the data set filed under Mus musculus [1] and 47.9 mg/kg in the data set on Mus musculus [2]. In the data set filed under Mus musculus [3], this compound came in with a TD50 of 168 mg/kg. For the same compound, the selectivity ratio in data set [4] came out at 2.5; in data set [5] it was 3.5.

`Clc1ccc(N2N=NCC2c2ccncc2)cc1` (configuration not stated): the 50% effect level in the data set listed under Mus musculus [1] (ED50) was put at a dose of 257 mg/kg. The compound also displayed a TD50 in the data set listed under Mus musculus [3] of 1130 mg/kg. Further, the selectivity ratio in data set [4] amounted to 4.4; in data set [5], 26.

Turning to `Clc1ccc(-n2nncc2-c2ccccc2)cc1`, the values for the ED50 in the data set listed under Mus musculus [1] and with Mus musculus [2] were 233 mg/kg and 95.2 mg/kg, respectively. The TD50 in the data set listed under Mus musculus [3] is 466 mg/kg. In addition, the selectivity ratio in data set [4] worked out at 2; in data set [5], 4.9.

On to `FC(F)(F)c1cccc(-n2nncc2-c2ccncc2)c1`, for which the results for the ED50 in the data set listed under Mus musculus [1] and in the data set with Mus musculus [2] were 68.2 mg/kg and 44.7 mg/kg, respectively. The TD50 in the data set filed under Mus musculus [3] amounted to 68 mg/kg. Also, the results for the selectivity ratio in data set [4] and in data set [5] were 0.99 and 1.52, respectively.

On to `CCCC(CCC)C(=O)O` [VALPROIC ACID], for which the ED50 is 272 mg/kg in the data set filed under Mus musculus [1] and 149 mg/kg with Mus musculus [2].

Consider `c1ccc(N2N=NCC2c2ccncc2)cc1` (configuration not stated), for which the ED50 in the data set listed under Mus musculus [1] is 165 mg/kg; with Mus musculus [2], 107 mg/kg. In the data set filed under Mus musculus [3], this compound registered a TD50 of 590 mg/kg. Also, the selectivity ratio was 3.6 in data set [4] and 5.6 in data set [5].

On to `Clc1ccc(-n2nncc2-c2ccccn2)cc1`, for which the figures for the ED50 in the data set filed under Mus musculus [1] and with Mus musculus [2] were 95.2 mg/kg and 50.4 mg/kg, respectively. Further, the TD50 in the data set listed under Mus musculus [3] was determined as 234 mg/kg. Further, the selectivity ratio in data set [4] was found to be 2.5; in data set [5], 4.6.

On to `Clc1cccc(-n2nncc2-c2ccncc2)c1`, for which the ED50 in the data set listed under Mus musculus [1] came out at 38 mg/kg; in the data set with Mus musculus [2], 29.2 mg/kg. The same compound had a TD50 in the data set listed under Mus musculus [3] of 68.7 mg/kg. Moreover, the selectivity ratio is 1.8 in data set [4] and 2.4 in data set [5].

On to `CCC1(C)CC(=O)NC1=O` (configuration not stated) [ETHOSUXIMIDE], for which it took a dose of 130 mg/kg to reach the 50% effect level in the data set with Mus musculus [2] (ED50). The TD50 in the data set filed under Mus musculus [3] stood at 441 mg/kg.

For the compound `Fc1ccc(N2N=NCC2c2ccncc2)cc1` (configuration not stated), the ED50 in the data set listed under Mus musculus [1] was found to be 239 mg/kg; with Mus musculus [2] it was 203 mg/kg. The compound also returned a TD50 in the data set listed under Mus musculus [3] of 586 mg/kg. For the same compound, the values for the selectivity ratio in data set [4] and in data set [5] were 2.5 and 2.9, respectively.

`CCC1(c2ccccc2)C(=O)NC(=O)NC1=O` [PHENOBARBITAL] gave a TD50 in the data set filed under Mus musculus [3] of 69 mg/kg.

Regarding `Fc1ccc(-n2nncc2-c2ccncc2)cc1`, the ED50 in the data set listed under Mus musculus [1] is 91.6 mg/kg; with Mus musculus [2], 119 mg/kg. In the data set filed under Mus musculus [3], this compound showed a TD50 of 181 mg/kg. Moreover, the selectivity ratio was found to be 2 in data set [4] and 1.5 in data set [5].

Compound `COc1ccc(-n2nncc2-c2ccncc2)cc1` returned an ED50 in the data set filed under Mus musculus [1] of 311 mg/kg. The TD50 in the data set listed under Mus musculus [3] was found to be 545 mg/kg. The selectivity ratio in data set [6] is 1.75.

Regarding `c1ccc(-n2nncc2-c2cccnc2)cc1`, the ED50 was determined as 76.4 mg/kg in the data set listed under Mus musculus [1] and 39.7 mg/kg in the data set with Mus musculus [2]. Also, in the data set filed under Mus musculus [3], the TD50 is 133 mg/kg. Also, the selectivity ratio is 1.7 in data set [4] and 3.3 in data set [5].

Usually ED50 stands for the dose at which the effect has come halfway, by size or by number of responders. The TD50 is the 50% point of the dose-response relation for the toxic effect studied.
